Data: patent US9932300B2, “N,N′-diarylurea compounds and N,N′-diarylthiourea compounds as inhibitors of translation initiation” (President and Fellows of Harvard College, priority 2009, dated 2018)
“And” between values parts separate entries of the source, which are not always exact repeats. Identical values can stand only once.

Tested on: eIF2-GTP-Met-tRNAi ternary complex
Test: Ternary complex assay (dual luciferase, firefly/renilla ratio) in stable KLN-tTA/pBISA-DL(ATF-4) cells; HTS and hit confirmation
Type: cell-based, mouse
Design: Activity 10 uM / Activity 2.5 uM / Activity 5 uM: unit not given here
Conditions: confirmed hits of the screen (Table 5); for Activity 2.5 uM: compound at 2.5 uM; for Activity 10 uM: compound at 10 uM

Compound | Activity 2.5 uM | Activity 10 uM
[C-]#[O+].[C-]#[O+].[C-]#[O+].[C-]#[O+].[C-]#[O+].[CH]1[CH][CH][CH][CH]1.[CH]1[CH][CH][CH][CH]1.[Mo].[Mo].c1ccc(P(CCP(c2ccccc2)c2ccccc2)c2ccccc2)cc1 [Compound 635072] | 1.59 | 5.58
CCOC(=O)/C(=C\c1ccc(N(C)C)cc1)[Se]c1ccccc1 [Compound 638113] | 1.87 | 3.17
C/C(=N/O)c1ccc2c(c1)C(=NO)c1cc(/C(C)=N/O)ccc1-2 [Compound 642485] | 1.93 | 3.59
CCOC(=O)C(C(=O)OCC)c1ccc([N+](=O)[O-])o1 [Compound 643139] |  | 7.511
COc1ccc(C2=NN(C(C)=O)c3nc4ccccc4nc3O2)cc1 [Compound 643713] | 2.72 | 4.87
CC1=NN(c2ccccc2)C(=O)C1=C1SCCCS1 [Compound 643762] | 1.99 | 3.47
CCC[CH2][Sn]([CH2]CCC)([CH2]CCC)[O]c1cccccc1=O [Compound 644907] | 4.97 | 
Nc1nc2c(N)cc(C(F)(F)F)cc2nc1-c1ccccc1 [Compound 645170] | 3 | 5.1
CCCCCCN(CCCCCC)C(=S)N/N=C(\C)c1ccccn1 [Compound 647131] | 1.96 | 17.42
CC(=O)Nc1ccc(C(O)/C(=N/N)c2nc3ccc(Cl)cc3[nH]c2=O)cc1 (stereo not drawn) [Compound 647590] | 2.31 | 3.22
CCCN(CCC)c1c([N+](=O)[O-])cc(S(N)(=O)=O)cc1[N+](=O)[O-] [Compound 648479] | 2.55 | 3.37
Cc1ccc(C2C(Cl)C(=O)N2n2cnc3ccccc3c2=O)cc1 (stereo not drawn) [Compound 650027] | 4.2 | 4.42
COc1ccc(/C=C(\C2=NC(=O)CS2)c2nc3ccccc3[nH]2)cc1 [Compound 652047] | 1.15 | 3.51
COc1ccc2c3ccc4c(c3n(C)c2c1)C(=O)C=CC4=O [Compound 652257] | 3.09 | 8.74
O=c1c([Se]c2coc3ccccc3c2=O)coc2ccccc12 [Compound 652531] | 0.71 | 12.9
O=[N+]([O-])[O-].O=[N+]([O-])[O-].[Au].[Au].c1ccc([P-]c2ccccc2)cc1.c1ccc([P-]c2ccccc2)cc1 [Compound 652594] | 1.46 | 14.89
O=C1/C(=C/c2ccc(O)c(O)c2)CCC/C1=C\c1ccc(O)c(O)c1 [Compound 652890] | 2.23 | 7.57
COc1ccc(-c2nnc(-c3nsc4ccccc34)o2)cc1 [Compound 652917] | 2.33 | 3.31
COc1ccc(Nc2nnc(-c3nsc4ccccc34)s2)cc1 [Compound 652924] | 1.78 | 3.58
CCN(CC)CCCNc1ncc(C)c2c1c1ccc3c(O)cccc3c1n2C [Compound 653438] | 0.755 | 12.32
CCSc1nnc(-c2ccccc2)nc1Cc1ccc(OC)cc1 [Compound 655141] | 2.18 | 3.91

Compound | Activity 2.5 uM | Activity 10 uM
O=C1C(c2ccc([N+](=O)[O-])cc2)=C(Cl)C(=O)c2c(O)cccc21 [Compound 656075] | 2.33 | 7.97
O=C1C(Cl)=C(c2ccc([N+](=O)[O-])cc2)C(=O)c2c(O)cccc21 [Compound 656076] | 4.6 | 17.27
CCN(CC)Cc1cc(Nc2c3ccccc3nc3c2[nH]c2ccccc23)cc(CN(CC)CC)c1O.Cl [Compound 656711] | 0.59 | 6.66
Cc1ccc(C2=Nc3cccc4cccc(c34)N2)cc1 [Compound 657189] | 2.65 | 3.16
CC(=O)C1C(=O)C(=O)N(c2ccc([N+](=O)[O-])cc2)C1=O.[Na+] (stereo not drawn) [Compound 657424] | 1.17 | 3.36
COc1ccc(-c2nc(Nc3ccccc3)sc2Cc2sc(Nc3ccccc3)nc2-c2ccc(OC)cc2)cc1 [Compound 658163] | 2.63 | 4.46
CCN1CCNc2c3cc(OC)ccc3nc3c([N+](=O)[O-])ccc1c23 [Compound 658354] | 0.2379 | 6.609
COc1ccc2nc3c([N+](=O)[O-])ccc4c3c(c2c1)NCCN4CCO [Compound 658355] | 0.5 | 8.48
COc1ccc2c(c1)c1c3c(ccc4ncn2c43)N(CCO)CCN=1 [Compound 658358] | 0.4 | 20.35
Cl.Cn1c(N)nc(-c2ccc(Cl)cc2)c1SSc1c(-c2ccc(Cl)cc2)nc(N)n1C [Compound 658830] | 0.48 | 4.21
CCn1c(O)c(C=Nc2ccccc2)s/c1=N/Nc1nc(C)cs1 [Compound 658916] | 2.047 | 3.18
O=C(CC(=O)Nc1ccccc1Cl)NNC(c1cc(N=Nc2ccc(Br)cc2)ccc1O)P(O)O (stereo not drawn) [Compound 659608] | 1.34 | 3.07
O=C1C=CC(=O)c2c1ccc1c3ccccc3n(-c3cccc([N+](=O)[O-])c3)c21 [Compound 661223] | 1.05 | 11.8
Cn1c2ccccc2c2c(-c3ccccc3)cc3c(c21)C(=O)C=CC3=O [Compound 661225] | 1.76 | 25.16
[Ru].[SH+]=C([SH2+])N1CCCCC1.[SH+]=C([SH2+])N1CCCCC1 [Compound 662875] | 10.55 | 40.72
O=c1n(-c2ccc(Cl)c(Cl)c2)c(=O)n(-c2ccc(Cl)c(Cl)c2)c(=O)n1-c1ccc(Cl)c(Cl)c1 [Compound 664259] | 2.76 | 4.24
Cc1nc2ccc(Br)cc2c(=O)n1-c1ccc(NC2OC(CO)C(O)C(O)C2O)cc1 (stereo not drawn) [Compound 665512] | 0.47 | 15.46
c1cc(-c2ncc(-c3ccc4c(c3)CCCO4)o2)ccn1 [Compound 665702] | 1.79 | 3.38
Cc1ccc(S(=O)(=O)n2c3c(c4ccccc42)CCN2C(=O)C(S(=O)(=O)c4ccccc4)=CCC32)cc1 (stereo not drawn) [Compound 665910] | 0.72 | 4.69
N#Cc1c(N)nc([Se]CC(=O)c2ccc(Cl)cc2)c(C#N)c1-c1ccco1 [Compound 666131] | 4.12 | 8.72
COc1ccc(/C=N/Nc2nc3ccccc3c(=O)n2-c2ccccc2)cc1 [Compound 666356] | 2.43 | 30.26

Compound | Activity 2.5 uM | Activity 10 uM
COc1ccc(C2Oc3c(cccc3OC)C=C2[N+](=O)[O-])cc1 (stereo not drawn) [Compound 667223] |  | 6.01 and 8.726
COc1cccc2c1OC(c1ccc(C#N)cc1)C([N+](=O)[O-])=C2 (stereo not drawn) [Compound 667226] | 0.34 | 4.79
S=C1CC(c2ccccc2)Sc2ccccc2N1 (stereo not drawn) [Compound 667463] | 3.13 | 3.45
O=[N+]([O-])C1=Cc2cc(Cl)ccc2OC1c1cccc2ccccc12 (stereo not drawn) [Compound 667472] | 0.35 | 9.48
Cc1cccc(/C=N\NC(=S)N2CCCCC2)n1 [Compound 667875] | 4.59 | 7.27
S=C(N/N=C/c1ccccn1)N1CC2CCC(CC2)C1 [Compound 667885] | 8.61 | 15.62
C=C1CC(C)(COc2ccc3c(C)cc(=O)oc3c2)OC1=O (stereo not drawn) [Compound 668262] | 0.78 | 3.33
COc1ccccc1NC(=S)N/N=C(/C)c1ccccn1 [Compound 668297] | 10.51 | 37.53
COc1ccccc1NC(=S)N/N=C/c1ccccn1 [Compound 668298] | 11.99 | 30.06
C/C(=N/NC(=S)Nc1ccccc1C)c1ccccn1 [Compound 668332] | 27.24 | 63.38
C/C(=N/NC(=S)Nc1cccc(Cl)c1)c1cccc(/C(C)=N\NC(=S)Nc2cccc(Cl)c2)n1 [Compound 668484] | 1.59 | 3.57
Oc1[nH]c2ccccc2c1N=NC(=S)N1CCCC1 [Compound 668494] | 3.76 | 13.68
O=C1C=CC(=O)c2c1ccc1c3ccccc3n(CCCCCn3c4ccccc4c4ccc5c(c43)C(=O)C=CC5=O)c21 [Compound 668605] | 0.8 | 3.17
S=C(NCCc1ccccn1)N/N=C/c1ccccn1 [Compound 670779] | 2.57 and 2.721 | 6.67 and 8.739
C/C(=N/NC(=S)NC(C)(C)C)c1ccccn1 [Compound 670788] | 6.58 | 4.08
S=C(N/N=C/c1ccccn1)Nc1ccc(Cl)cc1 [Compound 670965] | 50.7 and 44.32 | 23.32 and 25.3088
S=C(NCc1ccccc1)N/N=C/c1ccccn1 [Compound 670969] | 1.55 | 3.644
[CH+]=CC1([O][Sn-]([IH+])([c]2ccccc2)[c]2ccccc2)CCCCCC1 [Compound 671441] | 5.35 | 
Cc1cc[c]([Sn]([I])([O]C2(C=O)CCCCCC2)[c]2ccc(C)cc2)cc1 [Compound 671442] | 9.59 | 7.03
CCCCCCCN1C(=O)C(O)(c2ccc(C3(O)C(=O)N(CCCCCCC)c4ccccc43)s2)c2ccccc21 (stereo not drawn) [Compound 671896] | 0.85 | 4.31
